In patent US10960020B2, “Modulation of PCSK9 and LDLR through DRP1 inhibition” (THE BRIGHAM AND WOMEN'S HOSPITAL, INC., priority 2016, dated 2021):

How the values were obtained:
p62 = assay: Western blot, HepG2 p62 and p (S349) p62; assay type: cell-based, human; details: HepG2, 24 hours; Mdivi-1 50 μmol/L, MG132 0.3 μmol/L
BCL-XL = BCL-XL mRNA and protein, HepG2; assay type: cell-based, human; details: HepG2, Mdivi-1 50 μM, 24 hours
Description: Human cells and mouse liver was homogenized with TriZolTM (Life Technologies, Grand Island, N.Y.) to isolate RNA. QuantiTectTM Reverse Transcription Kit (Qiagen, Hilden, Germany) was used for reverse transcription on total RNA. cDNA was generated using the Quanta gScriptTM cDNA Synthesis Kit (Bioscience Inc., Gaithersburg, Md.). mRNA levels were quantified on a 7900HT real-time PCR system (Thermo Fisher Scientific) using TaqManTM real-time PCR with the following probes: Hs02758991_g1 (human GAPDH); Mm99999915_g1 (mouse Gapdh); Hs00236329 m1 (human BCL2L1); Hs00247147_m1 (human DRP1); Hs00545399_m1 (human PCSK9); Mm01263610_m1 (mouse Pcsk9); Hs00168352_m1 (human HMGCR); […]); Hs00181192_m1 (human LDLR); Mm00440169_m1 (mouse Ldlr); Hs01088691_m1 (human SREBP1); Mm00550338_m1 (mouse Srebp1); Hs00231674_m1 (human SREBP1a); custom primer (human SREBP1c); Hs01081784_m1 (human SREBP2); Mm01306292_m1 (mouse Srebp2); Hs01005622_m1 (human FASN); […]); Hs00167041_m1 (human HNF1A); Mm00493434_m1 (mouse Hnf1a); Hs00171168 (human APOE); Hs01059118_m1 (human ABCA1); Hs01103582_s1 (human JUN). Mouse SREBP-1c was analyzed by SYBERTM green PCR with the following primers: [NT] […] Protein concentrations were determined by the Pierce BCA AssayTM (Thermo Fisher Scientific). […] Protein levels were normalized to β-ACTIN, α-TUBULIN, or LAMIN A/C with the use of NIH ImageJ software for quantification.

[1] = tested on: diabetic apolipoprotein E-deficient mice; details: cited from earlier work
cellular PCSK9 protein = assay: Western blot, HepG2 cellular PCSK9 protein; assay type: cell-based, human; details: HepG2, Mdivi-1 50 μM, 24 hours

COc1cc(-n2c(S)nc3ccccc3c2=O)c(Cl)cc1Cl [Mdivi-1, 3-(2,4-Dichloro-5-methoxyphenyl)-2,3-dihydro-2-thioxo-4(1H)-quinazolinone]
p62 abundance (p62): strongly increased
p62 phosphorylation (p62): increased
BCL-XL abundance (protein) (BCL-XL): increased
BCL-XL expression (BCL2L1 mRNA) (BCL-XL): increased
oxidative stress and inflammation [1]: reduces
Cellular PCSK9 protein abundance (cellular PCSK9 protein): reduced
